Here are results for 1 compound from PMC6222377, “Design, Synthesis, and Evaluation of Amphiphilic Cyclic and Linear Peptides Composed of Hydrophobic and Positively-Charged Amino Acids as Antibacterial Agents” (Molecules : A Journal of Synthetic Chemistry and Natural …, 2018).

For assay [1], the system named is MRSA (Los Angeles County clone (LAC)). Kind of assay: microbe, parasite or virus in culture. Format: cell-based, methicillin-resistant Staphylococcus aureus. The procedure:
(§1) To evaluate the antibacterial activity of all the synthesized peptides, the minimum inhibitory concentration (MIC) was determined using the micro broth dilution method (Table 1), as per the Clinical Laboratory Standards Institute (CLSI). The MIC is a quantitative measurement of the minimum concentration of a compound required to inhibit visible bacterial growth. MIC values for all 20 peptides were measured against E. coli (ATCC 25922) and MRSA (Los Angeles County clone (LAC)) (Table 1). These two bacterial strains represent Gram-negative and Gram-positive pathogens. MRSA is one of the most challenging Gram-positive bacteria that leads to a life-threatening infection, while E. coli is a Gram-negative bacteria that has the ability to use gene mutations and multidrug efflux pumps that can result in multidrug resistance.
(§2) Two bacterial strains, methicillin-resistant Staphylococcus aureus (LAC) and Escherichia coli (ATCC 25922) were used for the evaluation of the antibacterial activities of the peptides. […] MRSA and E. coli were inoculated into Mueller Hinton (MH) broth (5 mL) at 37 °C. After shaking in an orbital shaker (175 rpm) overnight, the cultured suspension was diluted using normal saline (5 mL). […] An amount of 40 μL of the McFarland solution was then added to 5980 μL of MH media to afford 1/150 dilution. […] Minimal inhibitory concentrations (MIC) values were obtained using the broth micro dilution assay. In brief, first, the peptides and controls (200 μL) were added to the first column of the 96 well plate. Second, 2-fold serial dilutions of the compound were accomplished by adding media (100 μL) to other wells. After the serial dilution, the bacterial solution (100 μL) was added to all the wells. Finally, the microtiter plates were incubated statically at 37 °C overnight. MIC values were obtained by observing the minimal concentration at which bacterial growth was not visible. All the determinations were carried out in triplicate.

A further assay concerns E. coli (ATCC 25922). Kind of assay: microbe, parasite or virus in culture. Format: cell-based, Escherichia coli. Conditions: ATCC 25922. The procedure:
as §1, §2

The test system of the next assay is MRSA (ATCC 43300). Conditions: cited from earlier work. From the text:
Synthesis of AMPs by modifying the structures of amino acids is relatively easy. Change in the structure of natural and synthetic AMPs can be used to develop new active compounds with optimal activity and stability. Developing small-sized linear or cyclic peptides for AMP application is more accessible than the complex AMPs isolated from natural products containing disulfide bonds. The cyclic peptides are polypeptides chains containing a cyclic structure synthesized by linking the carboxylic acid and amino groups in the peptide.

In brackets after ≈: the same amount, converted by molar mass. Where a SMILES comes first, the peptide text is derived from it.

Regarding `N=C(N)NCCC[C@@H]1NC(=O)[C@H](CCCNC(=N)N)NC(=O)[C@H](CCCNC(=N)N)NC(=O)[C@H](Cc2c[nH]c3ccccc23)NC(=O)[C@H](Cc2c[nH]c3ccccc23)NC(=O)[C@H](Cc2c[nH]c3ccccc23)NC(=O)[C@H](Cc2c[nH]c3ccccc23)NC(=O)[C@H](CCCNC(=N)N)NC1=O` [[R4W4] (7)] (cyclo(RRRRWWWW)), in assay [1] (Los Angeles County clone (LAC)), the “MIC MRSA (LAC)” value came to 4 µg/mL (≈ 2.92 µM). In addition, the “MIC against MRSA as printed in the cytotoxicity section” value in assay [1] (text of section 2.3) is 4 µM (≈ 5.48 µg/mL). Moreover, in the assay with E. coli (ATCC 25922), the “MIC E. coli (ATCC 25922)” value stood at 16 µg/mL (≈ 11.7 µM). In the assay with MRSA (ATCC 43300), the “MIC against MRSA (ATCC 43300)” value was 2.67 µg/mL (≈ 1.95 µM).
